Assay results published in patent US6335339B1, “Triazine antiviral compounds” (Scriptgen Pharmaceuticals, Inc., priority 1998, dated 2002).
pEC50: −log10 of the molar value. Like-named read-outs stand apart in the source and are kept apart here.

Legend:
2.2.15 cells = experiment: neutral red dye uptake cytotoxicity; assay type: cell-based; details: 9 days treatment, read-out: 50% Cell Death CC50
Protocol: Further, the antiviral effect of any compound must be measured against its toxicity. Cytotoxicity is measured by the neutral red uptake method using the same cells used for antiviral activity.
2b. Compounds were prepared for toxicity treatment as follows: For each compound, a total of 4 concentrations were examined. This required 9 sets of 4 sterile, 1.1 ml minitubes (36 tubes per compound). Into the first tube of each set, sufficient compound was aliquoted to make up 465 μl of the highest test concentration. The other tubes were left empty. The tubes were covered with the rack lids, and stored at −20° C. or at an appropriate temperature. Tubes for the last day of treatment for toxicity testing contain the same amount of compound as used the previous days (not 3xas for the antiviral assays).
3b. The cytotoxicity of test compounds was analyzed in a 3.3-fold dilution series as follows. […] (155 μl×3) of RP2 were added to the first tube (containing the aliquot of compound) and 310 μL (155 μl×2) RP2 to each of the 3 remaining tubes. 150 μl of test compound-containing medium were serially transferred from the first tube to the other 3 tubes.
5. A single plate was used for the toxicity treatments for each test compound (up to 7 compounds per plates since the top row were reserved for untreated cells on every toxicity plate). To initiate the treatments, the culture medium was removed, and 100 μl of each dilution of every compound were added to each of 3 wells using a configuration similar to that shown above for the antiviral treatments. The untreated cells received 100 μl RP2 per well. Treatment was repeated daily for 9 days.
The antiviral effect of any compound was evaluated relative to its toxicity. Cells were seeded and treated following the guidelines above, after which a neutral red dye uptake assay was performed to assess toxicity as described below. Other assays of cytotoxicity (e.g., MTT) can be substituted for the procedure described below. Note that this procedure assesses toxicity under culture and treatment conditions which are identical to those used for the antiviral analyses, thereby permitting a determination as to whether the reduction in virus production due to a specific antiviral effect or due to a cytotoxic effect on the host cell. Since the cultures, by necessity, are at confluence, the cytotoxic effects of the test compounds will probably be reduced relative to the cytotoxic effects that would be expected for actively dividing cells.
1. Cultures were treated with test compounds on the designated toxicity plates as described above.
2. The culture medium was carefully removed 24 hours following the 9th day of treatment. The monolayer was fully removed in the top left three wells (row A, col. 1-3). These wells were used as “blanks” for the plate reader.
3. 100 μl DPBS (containing 0.01% neutral red dye) were added to each well, including the empty wells, and Incubated in the tissue culture incubator for 30 minutes.
4. The dye was removed carefully and gently, using a multichannel pipetman since the monolayers can become fragile after incubation with neutral red dye. 200 μl DPBS were added to all the wells taking care not to displace the monolayers. The DPBS was removed and 100 μl 50% EtOH/1% glacial acetic acid (in H2O) were added to each well. The plates were mixed for 15 minutes on an orbital platform shaker (120-150 RPM) to allow for full extraction of the dye from the cells.
5. Optical absorbance at 510 nm was read in an ELISA type plate reader, using the 3 empty wells to set the background. An average absorbance value was calculated for the 9 untreated cultures on a plate, and the absorbance of dye for the treated cultures on the same plate was expressed as a percentage of that value. This procedure was repeated for each individual plate. […]

HBV = experiment: antiviral assay in 2.2.15 cells producing HBV (virion DNA dot blot); assay type: cell-based, Hepatitis B virus; details: for pEC50: extra-cellular virus reduced by 50%, 2.2.15 cells, 9 days treatment, read-out: Antiviral EC50
Source text: Several cell lines and cell culture assays have been developed to identify potential therapeutics effective against chronic HBV infection. One of these cell lines, 2.2.15, has been used in a standardized assay that has repeatedly proven to be an accurate model of chronic cellular HBV replication and a predictive model of antiviral response for chronic hepadnaviral infection in vivo. 2.2.15 cells contain copies of the complete HBV genome integrated into the cell's genome, and 2.2.15 cells are not susceptible to infection by HBV. (Sells, M. A. et al., J. Virol. 62 (8): 2836-2844 (1988)). These cells express HBV genes producing complete HBV particles capable of infecting chimpanzees (Acs, G. et al., Proc. Natl. Acad. Sci. USA 84 (13): 4641-4644 (1987)). Briefly, 2.2.15 cells are cultured and pretreated with a test compound for about 9 days, at which point the media are harvested and subjected to dot-blot hybridization to detect HBV virion DNA.
The antiviral activity of the compounds of the present invention is measured by the methods described in Korba and Gering, Antiviral Res. 19: 55-70 (1992).
This assay format is well suited to the screening of test compounds for potential antiviral activity. The assay provides a threshold assessment of antiviral activity by measuring (i) the levels of HBV virion release from the cells and (ii) cytotoxicity. Two rows of cells were used for each compound, and 4 rows for the assay controls (two for untreated, and two for positive antiviral control, e.g., 3TC). After incubating in the presence of test compound for 9 days, the media were harvested, transferred to 96-well U-bottom plates, and centrifuged. The supernatants were transferred to tubes for dot blot hybridization analysis of HBV virion DNA. The medium was aspirated off of the toxicity plates and discarded. Toxicity plates were then incubated with neutral red dye (MTT can also be used if preferred), washed with DPBS, developed with an acetic acid-ethanol solution, and assayed in a plate reader.
1. 2.2.15 cells were seeded into 96-well, flat bottom tissue culture plates as described above. Duplicate plates were used for the antiviral treatments for each test compound (up to 8 compounds per pair of plates); after three to four days, cells were confluent and medium was yellow in color; the medium was removed and replaced with 100 μl RP2 24 hours before the beginning of drug treatment.
i) For each compound, a total of 4 concentrations were examined; this required 9 sets of 4 sterile, 1.1 ml minitubes (36 tubes per compound). Into the first tube of each set, sufficient compound was aliquoted to make up 700 μl (for 10-fold dilution series) or 980 μl (for 3.3-fold dilution series) of the highest test concentration; the other tubes were left empty.
i) For a 10-fold dilution series: to the first (compound containing) tube was added 700 μl (175 μl×4). 630 μl (210 μl×3) RP2 culture medium was added to the remaining 3 tubes. The first tube was mixed by pipeting up and down with a pipetman (a multichannel pipetman permits the simultaneous processing of multiple compounds). 70 μl of test compound-containing medium were serially transferred from the first tube to the other 3 tubes, taking care to thoroughly mix each tube before transferring medium;
b) 100 μl of each dilution of every compound was added to each of 6 wells (3 wells per plate) using the configuration listed below as an example. The lowest concentration was added first, and the same tips were used to add the higher concentrations. The untreated cells received 100 μl RP2 per well (untreated cells have to be carried on only one pair of the antiviral assay plates).
c) Treatments were repeated daily for 9 days. For the last day of treatment, and additional 200 μl RP2 were added to each well of the antiviral assay plates after the wells are treated with the test compounds (a total of 300 μl medium per well).
6. […]

SMILES	CC50 (2.2.15 cells) [µM]	EC90 (HBV; drug alone, Example 3, read-out: 90% viral reduction (EC90)) [µM]	pEC50 (HBV)	EC50 (HBV; Hepatitis B virus, 216 h, read-out: Antiviral EC50 (μM)) [µM]	pEC50 (HBV; Hepatitis B virus, 216 h)
CCCCN(CCCC)c1nc(NN=Cc2ccc([N+](=O)[O-])cc2)nc(Nc2ccc([N+](=O)[O-])cc2)n1 [Compound 5]	307	1.3	6.39	–	–
Cc1[nH]c2ccccc2c1C=NNc1nc(Nc2ccccc2)nc(Nc2ccc([N+](=O)[O-])cc2)n1 [Compound 6]	29	–	6.52	–	–
Cc1ccc(Nc2nc(NN=Cc3ccccc3)nc(Nc3ccccc3)n2)c(C)c1 [Compound 7]	29	–	4.48	–	–
CCCCN(CCCC)c1nc(N/N=C/c2cc(I)cc(I)c2O)nc(Nc2ccc([N+](=O)[O-])cc2)n1 [Compound 8]	196	–	< 4.00	–	–
Cc1ccc(Nc2nc(NN=Cc3ccc(O)cc3O)nc(Nc3ccc([N+](=O)[O-])cc3)n2)cc1C [Compound 9]	175	–	6.32	–	–
Cc1ccccc1Nc1nc(NN=Cc2ccc(I)cc2)nc(Nc2ccc([N+](=O)[O-])cc2)n1 [Compound 10]	> 300	–	< 4.00	–	–
CCCCN(CCCC)c1nc(NN=Cc2ccc3c(c2)OCO3)nc(Nc2ccc([N+](=O)[O-])cc2)n1 [Compound 11]	27	–	5.41	–	–
Cc1ccc(Nc2nc(NN=Cc3ccccc3O)nc(Nc3ccc([N+](=O)[O-])cc3)n2)cc1C [Compound 12]	77	–	6.12	–	–
CCN(CC)c1nc(NN=Cc2ccc([N+](=O)[O-])cc2)nc(Nc2ccccc2)n1 [Compound 13]	> 300	–	5.08	–	–
COc1c(Br)cc(Br)cc1C=NNc1nc(Nc2ccccc2)nc(N2CCCCC2)n1 [Compound 14]	> 100	–	< 4.00	–	–
Cc1ccc(C=NNc2nc(Nc3ccc([N+](=O)[O-])cc3)nc(Nc3ccccc3C)n2)cc1 [Compound 15]	0.6	–	6.30	–	–
CCCCN(CCCC)c1nc(NN=Cc2ccc(Cl)cc2)nc(Nc2ccc([N+](=O)[O-])cc2)n1 [Compound 16]	304	–	4.82	–	–
CC(C=NNc1nc(Nc2ccc([N+](=O)[O-])cc2)nc(Nc2ccc(C)c(C)c2)n1)=Cc1ccccc1 [Compound 19]	> 300	–	< 4.00	–	–
COc1ccc(Nc2nc(NN=Cc3ccc(OC)cc3OC)nc(Nc3ccccc3)n2)cc1 [Compound 20]	7.1	–	5.39	–	–
FC(F)(F)c1cccc(Nc2nc(Nc3ccccc3)nc(N3CCOCC3)n2)c1 [Compound 21]	5.6	–	5.25	–	–
COc1ccc(Nc2nc(NN=Cc3ccc(Cl)cc3)nc(Nc3ccccc3)n2)cc1 [Compound 22]	47	–	< 4.00	–	–
CCCCN(CCCC)c1nc(NN=Cc2ccc(OCC)c(O)c2)nc(Nc2ccc([N+](=O)[O-])cc2)n1 [Compound 23]	145	–	4.40	–	–

SMILES	CC50 (2.2.15 cells) [µM]	EC90 (HBV; drug alone, Example 3, read-out: 90% viral reduction (EC90)) [µM]	pEC50 (HBV)	EC50 (HBV; Hepatitis B virus, 216 h, read-out: Antiviral EC50 (μM)) [µM]	pEC50 (HBV; Hepatitis B virus, 216 h)
O=[N+]([O-])c1ccc(Nc2nc(NCc3ccccc3)nc(NN=Cc3ccccc3)n2)cc1 [Compound 24]	75	–	4.74	–	–
Cc1ccc(Nc2nc(NN=Cc3ccccc3)nc(Nc3ccccc3)n2)cc1 [Compound 25]	105	–	6.00	–	–
CCN(CC)CCNc1ccc2c3c(cccc13)C(=O)N(Nc1nc(NCc3ccccc3)nc(N(CC)CC)n1)C2=O [Compound 27]	> 300	–	< 4.00	–	–
COc1ccc(Br)cc1/C=N/Nc1nc(Nc2cccc([N+](=O)[O-])c2)nc(N2CCOCC2)n1 [Compound 28]	33	–	< 4.00	–	–
Cc1ccccc1Nc1nc(NN=Cc2ccc3c(c2)OCO3)nc(Nc2ccc([N+](=O)[O-])cc2)n1 [Compound 29]	15	–	5.96	–	–
Cc1ccc(Nc2nc(NN=Cc3cccc(I)c3)nc(Nc3ccccc3)n2)cc1 [Compound 30]	230	–	4.27	–	–
Oc1ccc(I)cc1C=NNc1nc(NCc2ccccc2)nc(Nc2ccccc2)n1 [Compound 33]	50	–	< 4.00	–	–
Oc1c(Br)cc(Cl)cc1/C=N/Nc1nc(Nc2cccc(C(F)(F)F)c2)nc(N2CCOCC2)n1 [Compound 34]	41	–	4.18	–	–
CCCCN(CCCC)c1nc(NN=Cc2cccc(Cl)c2)nc(Nc2ccc([N+](=O)[O-])cc2)n1 [Compound 35]	3.9	–	5.64	–	–
Cc1ccc(Nc2nc(NN=Cc3ccc(I)cc3)nc(Nc3ccccc3)n2)c(C)c1 [Compound 113]	> 300	–	< 4.00	–	–
O=[N+]([O-])c1ccc(Nc2nc(NN=Cc3ccc(Br)cc3)nc(N3CCCCCC3)n2)cc1 [Compound 117]	> 300	–	5.38	–	–
FC(F)(F)c1cccc(Nc2nc(NN=Cc3ccc(Cl)cc3)nc(N3CCOCC3)n2)c1 [Compound 120]	45	–	< 4.00	–	–
C(=Cc1ccccc1)C=NNc1nc(Nc2ccccc2)nc(Nc2ccccc2)n1 [Compound 125]	265	–	5.41	–	–
CCN(CC)c1nc(NCc2ccccc2)nc(N/N=C/c2ccccc2O)n1 [Compound 155, 2-hydroxybenzaldehyde N-[4-(benzylamino)-6-(diethylamino)-1,3,5-triazin-2-yl]hydrazone]	–	–	–	0.063	9.00
COc1ccc(Nc2nc(NN=Cc3ccc(O)cc3O)nc(Nc3ccccc3)n2)cc1 [Compound 158]	112	–	4.38	–	–
Cc1ccc(Nc2nc(NN=Cc3cc(I)ccc3O)nc(Nc3ccccc3)n2)c(C)c1 [Compound 159]	101	–	6.30	–	–
